Molecules are shown by their SMILES. Values joined by “and” are separate entries in the source; they are usually repeats but may differ in a detail not shown here. Equal entries are not always repeated. “Also recorded” adds a separate entry of the source. Where two headings read alike, the source gives them in different places.

Data on nine compounds can be found in article PMC13159774, “Functional Characterization of the Cat and Dog Wild‐Type and Mutant MDR1 Carrier Proteins and Frequency of the MDR1 Gene Mutation in 800 Cats From Germany” (Journal of Veterinary Pharmacology and Therapeutics, 2025).

The test system of series [1] is wild-type MDR1 (P-glycoprotein) of dog and cat. The series can be described thus: Rh123 efflux inhibition in MDR1-HEK293 cells, stated for both wild-type MDR1 carriers together. To be noted: dog and cat, IC50 range, inhibition of both wild-type MDR1 carriers (dog and cat), 5 μM Rh123, HEK293, range over both species and experiments. The protocol:
(§1) Transport inhibition experiments were performed with 5 μM Rh123 as the probe substrate in stably transfected MDR1‐HEK293 cells. Cells were seeded onto polylysine‐coated 96‐well plates and gene expression was induced with tetracycline treatment at 1 μg/mL. […] Subsequently, the PBS was replaced with 80 μL of transport buffer again containing the respective inhibitor or solvent alone, and cells were further incubated for 60 min at 37°C for the efflux phase.
(§2) All graphs and diagrams were generated with GraphPad Prism 6 (GraphPad Software Inc., San Diego, CA, USA). The IC50 values were determined by nonlinear regression analysis using the equation log (inhibitor) versus response—variable slope settings. Statistical analyses were performed using GraphPad Prism 6. As detailed in the figure legends, either Student's t‐test or two‐way ANOVA was applied, as appropriate.

The target of series [2] is dog MDR1 wt (canine MDR1 carrier) (Canis lupus familiaris, UniProt Q4PLA8). In words: Rh123 efflux inhibition (IC50) in stably transfected MDR1-HEK293 cells, dog MDR1 wt. To be noted: for IC50: IC50, inhibition of Rh123 efflux, dog MDR1 wt, 5 μM Rh123, HEK293 after tetracycline treatment, one value per independent experiment (two experiments). The protocol:
as §1, §2

The target of series [3] is cat MDR1 wt (feline MDR1 carrier) (Felis catus, UniProt D2KKF0). The series can be described thus: Rh123 efflux inhibition (IC50) in stably transfected MDR1-HEK293 cells, cat MDR1 wt. To be noted: IC50, inhibition of Rh123 efflux, 5 μM Rh123, HEK293 after tetracycline treatment, one value per independent experiment (two experiments). The method, then:
as §1, §2

A further series concerns dog MDR1 wt. In words: Rh123 transport experiment in HEK293 cells with/without tariquidar, dog MDR1 wt. To be noted: 1 μM TQD, 5 μM Rh123, HEK293. It counts as cell-based.
Another series has as its system cat MDR1 wt. In words: Rh123 transport experiment in HEK293 cells with/without tariquidar, cat MDR1 wt. To be noted: 1 μM TQD, 5 μM Rh123, HEK293.
In series [4] the test system is MDR1 carrier (parent MDCKII, dog MDR1 wt and cat MDR1 wt MDCKII^MDR1ko cells). In words: Transwell transport experiments in MDCKII cells with Rh123 and [3H]digoxin. It counts as cell-based. To be noted: 1 μM TQD. The method, then:
For transwell transport experiments in the MDCKII cell lines, 3 × 10^5 cells were seeded per 12‐mm/0.4 μm transwell membrane inserts (Sarstedt, Numbrecht, Germany). One day after seeding, the medium was changed. The transport experiments were performed 72 h after seeding and after reaching 100% confluence. Measurement of the transepithelial electrical resistance (TEER) was conducted on each well with the Millicell ERS‐2 electrical resistance system (Millipore) to confirm the integrity of the monolayer. Only cell monolayers that reached > 150 Ω cm^2 were used for the transport experiments. […] Fluorescence of Rh123 was detected with the GloMax plate reader. […] The amount of [^3H]digoxin in the samples was quantified by Tri‐Carb 2910TR Liquid Scintillation Analyzer (Perkin Elmer).
For all transwell experiments with Rh123 and [^3H]digoxin as the substrates, apparent permeability coefficients (P app, cm/s) and the efflux ratios (ER) were calculated as follows: Papp=V/A×C0×dQ/dt where “V” is the volume of the receiver chamber (1.5 or 0.5 mL), “A” is the surface area of the transwell inserts (being 1.1 cm^2), “C 0” is the initial concentration of the compound, and “dQ/dt” is the transport rate.
From the P app values of the AB and BA transport experiments, the ER was calculated as follows: [drawing 1]

Series [5] has as its system wild-type MDR1 carriers of dog and cat. The series can be described thus: Rh123 efflux inhibition in MDR1-HEK293 cells, stated for both wild-type MDR1 carriers together. The conditions noted are these: analyzed inhibitor concentration range, highest 100 μM. The protocol: as §1, §2
For series [6], the system named is dogs with homozygous MDR1 gene mutation. To be noted: cited from earlier work.
The next series deals with MDR1 carrier. Set-up: method as in Lespine et al. [2007]. The conditions noted are these: membrane vesicles from DC-3F-/ADX MDR1-overexpressing cells; ref Lespine et al. [2007]; read-out: Ki, ATPase activity of the MDR1 carrier stimulated by verapamil; cited from earlier work.
[7] abbreviates: stably transfected MDR1-HEK293 cells (tetracycline-induced), probe rhodamine 123 (Rh123), 5 μM.

Chain of dog MDR1 wt (canine MDR1 carrier) (Q4PLA8 entry or part of it): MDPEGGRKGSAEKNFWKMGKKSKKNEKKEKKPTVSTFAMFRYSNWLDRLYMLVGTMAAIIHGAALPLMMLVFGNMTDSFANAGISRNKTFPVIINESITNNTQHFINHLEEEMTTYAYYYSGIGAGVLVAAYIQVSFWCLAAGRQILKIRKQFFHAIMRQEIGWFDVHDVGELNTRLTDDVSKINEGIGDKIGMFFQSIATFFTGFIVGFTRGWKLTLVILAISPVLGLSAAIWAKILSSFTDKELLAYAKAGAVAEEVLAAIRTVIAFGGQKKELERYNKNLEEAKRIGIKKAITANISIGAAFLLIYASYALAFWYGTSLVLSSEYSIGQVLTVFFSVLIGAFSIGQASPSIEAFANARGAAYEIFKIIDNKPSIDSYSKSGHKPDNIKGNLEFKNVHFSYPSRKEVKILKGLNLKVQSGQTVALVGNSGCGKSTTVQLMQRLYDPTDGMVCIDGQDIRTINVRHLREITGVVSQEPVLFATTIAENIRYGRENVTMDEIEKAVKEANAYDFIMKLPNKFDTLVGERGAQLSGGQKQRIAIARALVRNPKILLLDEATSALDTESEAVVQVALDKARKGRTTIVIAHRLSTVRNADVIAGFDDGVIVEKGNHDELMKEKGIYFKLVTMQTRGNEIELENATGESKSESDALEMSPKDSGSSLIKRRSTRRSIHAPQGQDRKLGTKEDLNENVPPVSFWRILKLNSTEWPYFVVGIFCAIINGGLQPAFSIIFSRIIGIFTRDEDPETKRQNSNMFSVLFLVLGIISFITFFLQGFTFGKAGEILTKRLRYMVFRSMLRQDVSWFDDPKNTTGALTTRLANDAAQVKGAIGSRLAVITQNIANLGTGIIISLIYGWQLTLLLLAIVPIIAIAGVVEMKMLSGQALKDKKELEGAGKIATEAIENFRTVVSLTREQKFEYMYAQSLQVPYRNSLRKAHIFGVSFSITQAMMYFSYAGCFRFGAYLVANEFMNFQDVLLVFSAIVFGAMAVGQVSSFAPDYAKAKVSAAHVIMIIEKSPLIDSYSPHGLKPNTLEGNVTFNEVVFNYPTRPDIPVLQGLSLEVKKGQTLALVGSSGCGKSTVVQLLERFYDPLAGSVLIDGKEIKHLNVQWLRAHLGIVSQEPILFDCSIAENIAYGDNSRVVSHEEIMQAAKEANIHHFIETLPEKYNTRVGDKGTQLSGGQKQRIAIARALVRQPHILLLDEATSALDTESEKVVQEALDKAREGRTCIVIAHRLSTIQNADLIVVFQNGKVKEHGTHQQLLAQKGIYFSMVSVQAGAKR
Chain of cat MDR1 wt (feline MDR1 carrier) (D2KKF0 entry or part of it): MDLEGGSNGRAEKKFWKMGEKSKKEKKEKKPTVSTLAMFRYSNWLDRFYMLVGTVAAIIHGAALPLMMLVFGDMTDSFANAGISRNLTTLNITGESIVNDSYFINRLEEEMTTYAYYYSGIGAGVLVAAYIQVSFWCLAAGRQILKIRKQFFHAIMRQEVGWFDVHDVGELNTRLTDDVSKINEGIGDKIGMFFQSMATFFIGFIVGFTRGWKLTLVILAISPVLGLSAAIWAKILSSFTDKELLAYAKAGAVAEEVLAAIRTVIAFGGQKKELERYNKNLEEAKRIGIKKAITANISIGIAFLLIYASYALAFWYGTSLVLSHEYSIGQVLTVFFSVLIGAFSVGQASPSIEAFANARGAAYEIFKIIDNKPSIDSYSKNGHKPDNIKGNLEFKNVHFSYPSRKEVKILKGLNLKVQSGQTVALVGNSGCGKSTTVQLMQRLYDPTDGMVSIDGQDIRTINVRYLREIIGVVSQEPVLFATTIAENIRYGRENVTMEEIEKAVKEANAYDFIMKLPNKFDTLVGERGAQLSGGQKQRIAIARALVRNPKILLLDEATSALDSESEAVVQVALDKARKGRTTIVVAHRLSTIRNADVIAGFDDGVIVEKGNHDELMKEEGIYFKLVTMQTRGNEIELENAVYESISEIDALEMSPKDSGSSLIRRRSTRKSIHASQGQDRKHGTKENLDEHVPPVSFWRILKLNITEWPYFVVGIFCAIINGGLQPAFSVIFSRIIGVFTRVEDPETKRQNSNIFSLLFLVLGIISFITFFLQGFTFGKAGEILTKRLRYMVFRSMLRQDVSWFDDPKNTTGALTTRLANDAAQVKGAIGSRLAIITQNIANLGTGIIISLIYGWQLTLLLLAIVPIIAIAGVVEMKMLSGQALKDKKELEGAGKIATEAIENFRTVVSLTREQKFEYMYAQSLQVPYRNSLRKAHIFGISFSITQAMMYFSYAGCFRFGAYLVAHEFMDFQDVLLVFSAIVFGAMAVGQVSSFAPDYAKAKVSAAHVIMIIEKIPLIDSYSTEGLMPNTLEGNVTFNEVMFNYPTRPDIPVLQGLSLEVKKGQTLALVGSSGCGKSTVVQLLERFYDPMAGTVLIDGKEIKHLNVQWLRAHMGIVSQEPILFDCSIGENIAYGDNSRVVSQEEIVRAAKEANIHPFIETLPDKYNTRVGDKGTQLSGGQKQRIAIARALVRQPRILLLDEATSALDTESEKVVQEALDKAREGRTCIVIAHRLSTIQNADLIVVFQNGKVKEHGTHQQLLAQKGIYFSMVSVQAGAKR

For orientation: IC50 means the concentration at which inhibition is half-maximal. Higher therefore signals weaker potency in that assay. In series [1], `CS(=O)(=O)CC(=O)N1CC2(C1)OCc1cc(C3=NO[C@@](c4cc(Cl)c(F)c(Cl)c4)(C(F)(F)F)C3)ccc12` [sarolaner] gave an IC50 at 60 min of 30 to 57 µM. Also, the IC50 is 41.6 µM and 30 µM in series [2]; 56.5 µM and 35.1 µM in series [3].
Take `COc1cc2c(cc1OC)CN(CCc1ccc(NC(=O)c3cc(OC)c(OC)cc3NC(=O)c3cnc4ccccc4c3)cc1)CC2` [tariquidar]: the half-inhibitory concentration (IC50) at 60 min in series [1] (setting [7]) is 0.1 to 0.2 µM. The IC50 in [2] was 0.06 µM and 0.12 µM; in [3], 0.14 µM and 0.23 µM. Also, the “Effect on Rh123 efflux activity of wild-type canine MDR1” value with dog MDR1 wt is “fully abolished”. The “Effect on Rh123 efflux activity of wild-type feline MDR1” value in the series on cat MDR1 wt is recorded as “TQD‐sensitive reduction in Rh123 accumulation”. For the same compound, in series [4] (1 μM [3H]digoxin, dog MDR1 wt and cat MDR1 wt cell lines), the “Effect on transcellular transport of [3H]digoxin” value is on record as “completely abolished”. The “Effect on transcellular transport of Rh123” value in [4] (5 μM Rh123, dog MDR1 wt and cat MDR1 wt cell lines) is reported as “completely abolished”.
In the case of `O=C(CNC(=O)c1ccc(C2=NO[C@](c3cc(Cl)cc(C(F)(F)F)c3)(C(F)(F)F)C2)c2ccccc12)NCC(F)(F)F` [afoxolaner], in [5], the “Interaction with / inhibition of the MDR1 carriers from either species” value was “no detectable interaction; also recorded: no inhibition”. Moreover, in series [6] (dogs with homozygous MDR1 gene mutation, monotherapy or in combination with milbemycin oxime, ref Drag et al. [2022]), the “Safety of oral administration” value is reported as “safe”.
The compound `Cc1cc(C2=NO[C@@](c3cc(Cl)c(Cl)c(Cl)c3)(C(F)(F)F)C2)sc1C(=O)NCC(=O)NCC(F)(F)F` [lotilaner] came in with an IC50 at 60 min in [1] (setting [7]) of 11 to 23 µM. In addition, the IC50 in [2] was 23.2 µM and 10.9 µM; in series [3] it was 17.5 µM and 10.9 µM.
As to `Cc1cc(C2=NO[C@](c3cc(Cl)cc(Cl)c3)(C(F)(F)F)C2)ccc1C(=O)NCC(=O)NCC(F)(F)F` [fluralaner], the “Inhibition of the canine MDR1 carrier” value in [2] (up to the maximum tested concentration of 100 μM) was “did not inhibit”. Moreover, the “Safety of oral administration” value in [6] (Collies with homozygous MDR1 gene mutation, ref Walther et al. [2014]) is given as “treatment safety without neurological toxicity”. Also, the IC50 in series [3] was 69.9 µM and > 100 µM.
As a reminder, the Ki is the dissociation constant of the complex between target and ligand, obtained from inhibition or displacement. In turn, `CO[C@H]1C[C@H](O[C@@H]2/C(C)=C/C[C@@H]3C[C@@H](C[C@]4(CC[C@H](C)[C@@H](C5CCCCC5)O4)O3)OC(=O)[C@@H]3C=C(C)/C(=N/O)[C@H]4OC/C(=C\C=C\[C@@H]2C)[C@]43O)O[C@@H](C)[C@@H]1O` [selamectin] had a half-inhibitory concentration (IC50) at 60 min in [1] of 10 to 22 µM. The 50% inhibitory concentration (IC50) is 21.5 µM and 15.7 µM in series [2]; 14.3 µM and 10.3 µM in [3]. For the same compound, the “Oral dose remaining without clinical symptoms of neurological toxicity” value in [6] (ivermectin-sensitive Collies, oral, ref Geyer and Janko [2012]) is “exceeding 15 mg/kg”. Also, in the series on MDR1 carrier, the Ki was 1 µM.
Take `CO[C@H]1C[C@H](O[C@H]2[C@H](C)O[C@@H](O[C@@H]3/C(C)=C/C[C@@H]4C[C@@H](C[C@]5(C=C[C@H](C)[C@@H](C6CCCCC6)O5)O4)OC(=O)[C@@H]4C=C(C)[C@@H](O)[C@H]5OC/C(=C\C=C\[C@@H]3C)[C@]54O)C[C@@H]2OC)O[C@@H](C)[C@@H]1O` [doramectin]: the “Outcome of off-label treatment” value in [6] (dogs with homozygous MDR1 mutation, 0.6 mg/kg subcutaneous injection, ref Mealey et al. [2001], Hopper et al. [2008], Geyer and Janko [2012]) was “fatal cases of neurological toxicity”.
Take `C/C=C/C[C@@H](C)C(=O)[C@H]1C(=O)N[C@@H](C(C)C)C(=O)N(C)CC(=O)N(C)[C@@H](CC(C)C)C(=O)N[C@@H](C(C)C)C(=O)N(C)[C@@H](CC(C)C)C(=O)N[C@@H](C)C(=O)N[C@H](C)C(=O)N(C)[C@@H](CC(C)C)C(=O)N(C)[C@@H](CC(C)C)C(=O)N(C)[C@@H](C(C)C)C(=O)N1C` [PSC833, valspodar]: the 50% inhibitory concentration (IC50) at 60 min in series [1] was in the range of 1 to 2 µM. Besides, the IC50 is 0.66 µM and 0.95 µM in series [2]; 1.5 µM in series [3].
Take `CO/N=C1\C[C@]2(C[C@@H]3C[C@@H](C/C=C(\C)C[C@@H](C)/C=C/C=C4\CO[C@@H]5[C@H](O)C(C)=C[C@@H](C(=O)O3)[C@]45O)O2)O[C@H](/C(C)=C/C(C)C)[C@H]1C` [moxidectin]: the IC50 at 60 min in series [1] (setting [7]) was in the range of 8 to 21 µM. The IC50 is 21.2 µM and 15.2 µM in series [2]; 9.2 µM and 8.4 µM in [3].
